Columns and labels:
rat [1] = settings: Sub-acute repeat dose toxicity, sprague dawley, Oral, Gavage/Intubation, dose end: 28 day, group: systemic
dog [2] = settings: Sub-acute repeat dose toxicity, beagle, Oral, Capsule, dose end: 4 week, group: systemic
rat [3] = settings: Prenatal developmental toxicity study, sprague dawley, Oral, Gavage/Intubation, dose end: 17 GD
dog [4] = settings: Chronic toxicity; beagle; Oral; Capsule; dose end: 26 week; group: systemic; systemic / in life observation / body weight / body weight gain + systemic / in life observation / clinical signs / [other] + systemic / in …
rat [5] = settings: Fertility (Segment I); sprague dawley; Oral; Gavage/Intubation; dose end: 7 GD; group: parental; systemic / in life observation / body weight / body weight + systemic / in life observation / clinical signs / abnormal gait + systemic / in…
rat [6] = settings: Prenatal developmental toxicity study, sprague dawley, Oral, Gavage/Intubation, dose end: 17 GD; remark: listed apart in the source
rabbit [7] = settings: Prenatal developmental toxicity study, new zealand white, Oral, Gavage/Intubation, dose end: 19 GD, group: maternal
rabbit [8] = settings: Prenatal developmental toxicity study, new zealand white, Oral, Gavage/Intubation, dose end: 19 GD, group: maternal; remark: listed apart in the source
rat [9] = settings: Peri- and post-natal toxicity study (Segment III), sprague dawley, Oral, Gavage/Intubation, dose end: 5 PND
rat [10] = settings: Multigenerational reproductive toxicity study, sprague dawley, Oral, Water, dose end: 3 generation, systemic / pathology microscopic / liver / apoptosis + systemic / pathology microscopic / liver / glycogen deposition
mouse [11] = settings: Prenatal developmental toxicity study, swiss albino, Oral, Gavage/Intubation, dose end: 16 GD
rat [12] = settings: Prenatal developmental toxicity study, sprague dawley, Injection, Intramuscular, dose end: 15 GD
rat [13] = settings: Prenatal developmental toxicity study, sprague dawley, Injection, Subcutaneous, dose end: 15 GD
rat [14] = settings: Prenatal developmental toxicity study, sprague dawley, Oral, [Not Specified], dose end: 15 GD
rat [15] = settings: Prenatal developmental toxicity study, wistar, Injection, Intramuscular, dose end: 15 GD
rat [16] = settings: Prenatal developmental toxicity study, sprague dawley, Oral, Gavage/Intubation, dose end: 19 GD
rat [17] = settings: Prenatal developmental toxicity study, sprague dawley, Oral, Gavage/Intubation, dose end: 19 GD; remark: listed apart in the source
mouse [18] = settings: Prenatal developmental toxicity study, other, Oral, Water, dose end: 19 GD
[19] = systemic / in life observation / clinical signs / unsteady gait + systemic / in life observation / body weight / body weight gain
[20] = systemic / in life observation / clinical signs / unsteady gait + systemic / in life observation / body weight / body weight gain + systemic…
[21] = systemic / clinical chemistry / albumin / albumin + systemic / clinical chemistry / cholesterol / cholesterol + systemic / clinical …
[22] = systemic / clinical chemistry / cholesterol / cholesterol + systemic / clinical chemistry / lipids / phospholipids
[23] = group: developmental, developmental / developmental malformation / mouth / jaw / cleft palate
[24] = group: maternal, systemic / in life observation / body weight / body weight gain + systemic / in life observation / clinical signs / abnormal gait + systemic…
[25] = group: developmental, developmental / developmental malformation / mouth / jaw / cleft palate + systemic / in life observation / body weight / fetal weight
[26] = group: maternal, systemic / in life observation / clinical signs / impaired righting reflex + systemic / in life observation / clinical signs / piloerection
[27] = systemic / in life observation / body weight / body weight gain + systemic / in life observation / clinical signs / defecation + systemic / …
[28] = systemic / in life observation / clinical signs / abnormal feces + systemic / in life observation / clinical signs / body cold to touch + …
[29] = systemic / in life observation / body weight / body weight gain + systemic / in life observation / food consumption / food consumption
[30] = systemic / in life observation / body weight / body weight gain + systemic / in life observation / food consumption / food consumption + …
[31] = group: developmental, developmental / offspring survival late / viability index / viability index + developmental / developmental landmark / vaginal opening / …
[32] = group: maternal, reproductive / offspring survival early / dead fetuses / dead fetuses
[33] = group: offspring, systemic / in life observation / body weight / offspring (pup) weight
[34] = group: offspring, systemic / in life observation / body weight / offspring (pup) weight + systemic / organ weight / prostate / absolute + systemic / organ …
[35] = group: developmental, developmental / developmental malformation / general / hemorrhage + developmental / developmental malformation / kidney / dilated renal …
[36] = group: maternal, reproductive / reproductive performance / implantations / implantations + reproductive / reproductive performance / postimplantation loss / …
[37] = group: developmental, developmental / developmental malformation / bone / wavy + developmental / developmental malformation / heart / membranous ventricular …
[38] = group: developmental, developmental / developmental malformation / bone / wavy + systemic / in life observation / body weight / fetal weight
[39] = group: maternal, reproductive / reproductive performance / postimplantation loss / postimplantation loss
[40] = group: developmental, developmental / developmental malformation / bone / unossified + systemic / in life observation / body weight / fetal weight
[41] = group: maternal, systemic / in life observation / body weight / body weight gain + systemic / in life observation / clinical signs / salivation
[42] = group: maternal, systemic / in life observation / body weight / body weight gain + systemic / in life observation / clinical signs / salivation + systemic / …
[43] = group: maternal, reproductive / reproductive performance / postimplantation loss / postimplantation loss + reproductive / reproductive performance / …
[44] = group: developmental, developmental / developmental malformation / bone / delayed ossification + developmental / developmental malformation / bone / exencephaly…
[45] = group: maternal, reproductive / reproductive performance / resorptions / resorptions + systemic / in life observation / body weight / body weight + systemic…

COc1cccc(-c2ccc(/C=C\CN3CCCCCC3)cc2Cl)c1.Cl
LOAEL (rat [1]; [19]): 30 mg/kg/day | NOAEL (rat [1]; [19]): < 30 mg/kg/day | LEL (rat [1]; [20]): 30 mg/kg/day | NEL (rat [1]; [20]): < 30 mg/kg/day | LOAEL (dog [2]; [21]): 10 mg/kg/day | NOAEL (dog [2]; [21]): 5 mg/kg/day | LEL (dog [2]; [22]): 5 mg/kg/day | NEL (dog [2]; [22]): < 5 mg/kg/day | LEL (rat [3]; [23]): 75 mg/kg/day | LOAEL (rat [3]; [23]): 75 mg/kg/day | NEL (rat [3]; [23]): 35 mg/kg/day | NOAEL (rat [3]; [23]): 35 mg/kg/day | LEL (rat [3]; [24]): 35 mg/kg/day | LOAEL (rat [3]; [24]): 35 mg/kg/day | NEL (rat [3]; [24]): 15 mg/kg/day | NOAEL (rat [3]; [24]): 15 mg/kg/day | LEL (dog [4]): 15 mg/kg/day | LOAEL (dog [4]): 15 mg/kg/day | NEL (dog [4]): 7.5 mg/kg/day | NOAEL (dog [4]): 7.5 mg/kg/day | LEL (rat [5]): 90 mg/kg/day | LOAEL (rat [5]): 90 mg/kg/day | NEL (rat [5]): 30 mg/kg/day | NOAEL (rat [5]): 30 mg/kg/day | LEL (rat [6]; [23]): 60 mg/kg/day | LOAEL (rat [6]; [23]): 60 mg/kg/day | NEL (rat [6]; [25]): 30 mg/kg/day | NOAEL (rat [6]; [25]): 30 mg/kg/day | LEL (rat [6]; [26]): 30 mg/kg/day | LOAEL (rat [6]; [26]): 30 mg/kg/day | NEL (rat [6]; [26]): < 30 mg/kg/day | NOAEL (rat [6]; [26]): < 30 mg/kg/day | LEL (rabbit [7]; [27]): 25 mg/kg/day | NEL (rabbit [7]; [27]): < 25 mg/kg/day | LOAEL (rabbit [7]; [28]): > 150 mg/kg/day | NOAEL (rabbit [7]; [28]): ≥ 150 mg/kg/day | LEL (rabbit [8]; [29]): 35 mg/kg/day | LOAEL (rabbit [8]; [29]): 35 mg/kg/day | NEL (rabbit [8]; [30]): 15 mg/kg/day | NOAEL (rabbit [8]; [30]): 15 mg/kg/day

CCCCCCCCc1ccc(O)cc1 [4-Octylphenol]
LEL (rat [9]; group: developmental, developmental / developmental landmark / vaginal opening / vaginal opening + developmental / developmental landmark / preputial separation…): 50 mg/kg/day | LOAEL (rat [9]; [31]): > 100 mg/kg/day | NEL (rat [9]; [31]): 25 mg/kg/day | NOAEL (rat [9]; [31]): ≥ 100 mg/kg/day | LEL (rat [9]; [32]): 50 mg/kg/day | LOAEL (rat [9]; [32]): > 100 mg/kg/day | NEL (rat [9]; [32]): 25 mg/kg/day | NOAEL (rat [9]; [32]): ≥ 100 mg/kg/day | LOAEL (rat [9]; [33]): 25 mg/kg/day | NOAEL (rat [9]; [33]): 12.5 mg/kg/day | LEL (rat [9]; [34]): 12.5 mg/kg/day | NEL (rat [9]; [34]): < 12.5 mg/kg/day | LEL (rat [10]; group: offspring): 1.25 mg/kg/day | LOAEL (rat [10]; group: offspring): > 1.25 mg/kg/day | NEL (rat [10]; group: offspring): < 1.25 mg/kg/day | NOAEL (rat [10]; group: offspring): ≥ 1.25 mg/kg/day | LEL (rat [10]; group: parental): 1.25 mg/kg/day | LOAEL (rat [10]; group: parental): > 1.25 mg/kg/day | NEL (rat [10]; group: parental): < 1.25 mg/kg/day | NOAEL (rat [10]; group: parental): ≥ 1.25 mg/kg/day

CC(C)OC(=O)C(C)(C)Oc1ccc(C(=O)c2ccc(Cl)cc2)cc1 [Fenofibrate]
LEL (mouse [11]; [35]): 11.7 mg/kg/day | LOAEL (mouse [11]; [35]): > 586 mg/kg/day | NEL (mouse [11]; [35]): < 11.7 mg/kg/day | NOAEL (mouse [11]; [35]): ≥ 586 mg/kg/day | LEL (mouse [11]; [36]): 586 mg/kg/day | LOAEL (mouse [11]; [36]): > 586 mg/kg/day | NEL (mouse [11]; [36]): 117 mg/kg/day | NOAEL (mouse [11]; [36]): ≥ 586 mg/kg/day

OCC(O)CO [Glycerol]
LOAEL (rat [12]; [37]): > 1200 mg/kg/day | NOAEL (rat [12]; [37]): ≥ 1200 mg/kg/day | LEL (rat [12]; [38]): 300 mg/kg/day | NEL (rat [12]; [38]): < 300 mg/kg/day | LEL (rat [12]; [39]): 300 mg/kg/day | LOAEL (rat [12]; [39]): > 1200 mg/kg/day | NEL (rat [12]; [39]): < 300 mg/kg/day | NOAEL (rat [12]; [39]): ≥ 1200 mg/kg/day | LEL (rat [13]; [37]): 600 mg/kg/day | LOAEL (rat [13]; [37]): > 600 mg/kg/day | NEL (rat [13]; [37]): < 600 mg/kg/day | NOAEL (rat [13]; [37]): ≥ 600 mg/kg/day | LEL (rat [13]; [39]): 600 mg/kg/day | LOAEL (rat [13]; [39]): > 600 mg/kg/day | NEL (rat [13]; [39]): < 600 mg/kg/day | NOAEL (rat [13]; [39]): ≥ 600 mg/kg/day | LEL (rat [14]; [37]): 600 mg/kg/day | LOAEL (rat [14]; [37]): > 1200 mg/kg/day | NEL (rat [14]; [37]): < 600 mg/kg/day | NOAEL (rat [14]; [37]): ≥ 1200 mg/kg/day | LEL (rat [14]; [39]): 600 mg/kg/day | LOAEL (rat [14]; [39]): > 1200 mg/kg/day | NEL (rat [14]; [39]): < 600 mg/kg/day | NOAEL (rat [14]; [39]): ≥ 1200 mg/kg/day | LEL (rat [15]; [37]): 600 mg/kg/day | LOAEL (rat [15]; [37]): > 600 mg/kg/day | NEL (rat [15]; [37]): < 600 mg/kg/day | NOAEL (rat [15]; [37]): ≥ 600 mg/kg/day | LEL (rat [15]; [39]): 600 mg/kg/day | LOAEL (rat [15]; [39]): > 600 mg/kg/day | NEL (rat [15]; [39]): < 600 mg/kg/day | NOAEL (rat [15]; [39]): ≥ 600 mg/kg/day

CN=C=S [Methyl isothiocyanate]
LEL (rat [16]; [40]): 30 mg/kg/day | LOAEL (rat [16]; [40]): 30 mg/kg/day | NEL (rat [16]; [40]): 10 mg/kg/day | NOAEL (rat [16]; [40]): 10 mg/kg/day | LEL (rat [16]; [41]): 10 mg/kg/day | LOAEL (rat [16]; [41]): 10 mg/kg/day | NEL (rat [16]; [42]): 3 mg/kg/day | NOAEL (rat [16]; [42]): 3 mg/kg/day

CCC#N [Propionitrile]
LEL (rat [17]; group: developmental, developmental / developmental malformation / bone / unossified): 40 mg/kg/day | LOAEL (rat [17]; [40]): > 80 mg/kg/day | NEL (rat [17]; [40]): 20 mg/kg/day | NOAEL (rat [17]; [40]): ≥ 80 mg/kg/day | LEL (rat [17]; [43]): 80 mg/kg/day | LOAEL (rat [17]; [43]): > 80 mg/kg/day | NEL (rat [17]; [43]): 40 mg/kg/day | NOAEL (rat [17]; [43]): ≥ 80 mg/kg/day

Cl.Cl.NCCNCCNCCN [Trientine hydrochloride]
LOAEL (mouse [18]; [44]): > 1600 mg/kg/day | NEL (mouse [18]; [44]): 400 mg/kg/day | NOAEL (mouse [18]; [44]): ≥ 1600 mg/kg/day | LEL (mouse [18]; group: developmental, developmental / developmental malformation / bone / delayed ossification + developmental / developmental malformation / bone / microcephaly…): 800 mg/kg/day | LEL (mouse [18]; [45]): 1600 mg/kg/day | LOAEL (mouse [18]; [45]): > 1600 mg/kg/day | NEL (mouse [18]; [45]): 800 mg/kg/day | NOAEL (mouse [18]; [45]): ≥ 1600 mg/kg/day
